Laboratory results from ChEMBL document CHEMBL1671836, “Synthesis and Structure-Activity Relationships of Benzothienothiazepinone Inhibitors of Protein Kinase D” (ACS Med Chem Lett, 2011).
pIC50: −log10 of the molar value. Active and inactive are the calls of the source. The rule behind the calls is not given here.

Key:
[1] = biological target: Protein kinase C beta type (Homo sapiens) (UniProt P05771); assay: Inhibition of human recombinant PKCbeta1 at < 10 uM after 10 mins by radiometric assay
[2] = biological target: Calcium/calmodulin-dependent protein kinase type II subunit alpha (Homo sapiens) (UniProt Q9UQM7); assay: Inhibition of human recombinant CAMK2alpha at < 10 uM after 10 mins by radiometric assay
[3] = biological target: Serine/threonine-protein kinase PLK2 (Homo sapiens) (UniProt Q9NYY3); assay: Inhibition of PLK2 at < 10 uM by TR-FRET assay
[4] = biological target: Serine/threonine-protein kinase PLK1 (Homo sapiens) (UniProt P53350); assay: Inhibition of PLK1 at < 10 uM by TR-FRET assay
[5] = biological target: Cyclin-dependent kinase 7 (Homo sapiens) (UniProt P50613); assay: Inhibition of CDK7 at < 10 uM by TR-FRET assay
[6] = biological target: Protein kinase C delta type (Homo sapiens) (UniProt Q05655); assay: Inhibition of human recombinant PKCdelta at < 10 uM after 10 mins by radiometric assay
[7] = biological target: Protein kinase C alpha type (Homo sapiens) (UniProt P17252); assay: Inhibition of human recombinant PKCalpha at < 10 uM after 10 mins by radiometric assay
[8] = Inhibition of human recombinant PKD3 after 10 mins by radiometric assay
[9] = biological target: RAC-alpha serine/threonine-protein kinase (Homo sapiens) (UniProt P31749); assay: Inhibition of AKT at < 10 uM by IMAP assay
Chain of RAC-alpha serine/threonine-protein kinase (Homo sapiens) (P31749 whole entry): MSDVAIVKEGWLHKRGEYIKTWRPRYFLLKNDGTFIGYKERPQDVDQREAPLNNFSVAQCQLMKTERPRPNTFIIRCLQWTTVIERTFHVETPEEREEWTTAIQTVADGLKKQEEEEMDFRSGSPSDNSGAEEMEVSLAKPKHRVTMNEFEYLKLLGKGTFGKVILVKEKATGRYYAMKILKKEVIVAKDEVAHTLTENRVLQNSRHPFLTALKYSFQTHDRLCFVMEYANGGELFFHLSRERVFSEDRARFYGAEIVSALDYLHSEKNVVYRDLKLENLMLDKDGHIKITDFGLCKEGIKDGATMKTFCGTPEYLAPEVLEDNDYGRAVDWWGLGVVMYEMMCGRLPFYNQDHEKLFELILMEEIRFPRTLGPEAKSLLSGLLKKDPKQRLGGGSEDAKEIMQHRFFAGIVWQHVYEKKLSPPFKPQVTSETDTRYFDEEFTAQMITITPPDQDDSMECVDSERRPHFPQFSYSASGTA

Chain of Serine/threonine-protein kinase PLK2 (Homo sapiens) (Q9NYY3 whole entry, looked up): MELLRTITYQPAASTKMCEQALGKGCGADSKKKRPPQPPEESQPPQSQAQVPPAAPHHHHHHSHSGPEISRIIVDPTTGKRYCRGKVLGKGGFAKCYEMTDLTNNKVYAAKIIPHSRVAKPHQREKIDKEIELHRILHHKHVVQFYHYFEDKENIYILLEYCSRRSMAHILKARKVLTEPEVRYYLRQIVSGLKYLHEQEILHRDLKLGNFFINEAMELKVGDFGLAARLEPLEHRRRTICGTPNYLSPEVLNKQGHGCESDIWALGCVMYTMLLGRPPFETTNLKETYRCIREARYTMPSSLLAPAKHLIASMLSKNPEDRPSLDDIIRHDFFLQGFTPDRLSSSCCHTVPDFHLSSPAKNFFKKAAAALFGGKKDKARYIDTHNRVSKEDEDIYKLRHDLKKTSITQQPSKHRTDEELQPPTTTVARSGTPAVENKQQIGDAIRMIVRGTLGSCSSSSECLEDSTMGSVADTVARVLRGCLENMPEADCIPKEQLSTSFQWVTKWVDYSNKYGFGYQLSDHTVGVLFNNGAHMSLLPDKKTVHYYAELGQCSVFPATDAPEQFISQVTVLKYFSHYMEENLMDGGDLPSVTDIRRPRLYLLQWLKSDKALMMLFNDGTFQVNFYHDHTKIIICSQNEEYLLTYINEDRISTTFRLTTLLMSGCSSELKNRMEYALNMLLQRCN
Chain of Cyclin-dependent kinase 7 (Homo sapiens) (P50613 whole entry): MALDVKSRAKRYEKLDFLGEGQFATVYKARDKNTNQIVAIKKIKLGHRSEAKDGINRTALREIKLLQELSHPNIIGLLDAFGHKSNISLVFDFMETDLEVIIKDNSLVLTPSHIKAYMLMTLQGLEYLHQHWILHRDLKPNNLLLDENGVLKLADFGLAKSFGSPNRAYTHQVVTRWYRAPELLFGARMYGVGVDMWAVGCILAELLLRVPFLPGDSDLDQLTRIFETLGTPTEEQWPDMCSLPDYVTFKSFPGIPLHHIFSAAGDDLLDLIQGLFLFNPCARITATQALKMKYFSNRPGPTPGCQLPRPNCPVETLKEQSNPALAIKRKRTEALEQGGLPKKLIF
Chain of Serine/threonine-protein kinase PLK1 (Homo sapiens) (P53350 whole entry): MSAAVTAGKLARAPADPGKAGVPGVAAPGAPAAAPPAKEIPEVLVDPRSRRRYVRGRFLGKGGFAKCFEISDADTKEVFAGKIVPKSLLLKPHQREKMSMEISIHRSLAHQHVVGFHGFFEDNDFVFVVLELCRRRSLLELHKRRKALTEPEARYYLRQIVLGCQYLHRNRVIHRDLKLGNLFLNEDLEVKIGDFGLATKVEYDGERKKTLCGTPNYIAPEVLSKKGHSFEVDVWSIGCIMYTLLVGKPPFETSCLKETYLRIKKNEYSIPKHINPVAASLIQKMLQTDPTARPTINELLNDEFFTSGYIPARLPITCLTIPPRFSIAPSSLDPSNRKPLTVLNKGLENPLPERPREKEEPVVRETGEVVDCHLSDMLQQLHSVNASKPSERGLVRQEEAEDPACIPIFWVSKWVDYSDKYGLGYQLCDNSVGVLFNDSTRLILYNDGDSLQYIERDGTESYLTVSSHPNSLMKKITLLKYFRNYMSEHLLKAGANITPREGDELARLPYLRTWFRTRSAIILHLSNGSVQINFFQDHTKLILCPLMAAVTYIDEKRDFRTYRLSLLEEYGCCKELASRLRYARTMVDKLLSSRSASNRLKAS
Chain of Calcium/calmodulin-dependent protein kinase type II subunit alpha (Homo sapiens) (Q9UQM7 whole entry): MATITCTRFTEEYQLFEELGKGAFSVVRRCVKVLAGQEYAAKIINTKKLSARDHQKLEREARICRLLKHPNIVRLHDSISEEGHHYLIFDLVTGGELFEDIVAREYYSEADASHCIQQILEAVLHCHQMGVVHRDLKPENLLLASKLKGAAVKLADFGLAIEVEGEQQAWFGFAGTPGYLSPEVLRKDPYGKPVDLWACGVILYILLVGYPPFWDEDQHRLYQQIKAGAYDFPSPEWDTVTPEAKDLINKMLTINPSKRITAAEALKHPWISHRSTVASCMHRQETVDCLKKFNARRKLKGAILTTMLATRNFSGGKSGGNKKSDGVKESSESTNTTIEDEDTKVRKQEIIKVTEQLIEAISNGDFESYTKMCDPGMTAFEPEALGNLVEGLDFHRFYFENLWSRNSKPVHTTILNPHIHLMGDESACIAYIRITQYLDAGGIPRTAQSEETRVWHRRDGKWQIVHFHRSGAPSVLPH
Chain of Protein kinase C delta type (Homo sapiens) (Q05655 whole entry, looked up): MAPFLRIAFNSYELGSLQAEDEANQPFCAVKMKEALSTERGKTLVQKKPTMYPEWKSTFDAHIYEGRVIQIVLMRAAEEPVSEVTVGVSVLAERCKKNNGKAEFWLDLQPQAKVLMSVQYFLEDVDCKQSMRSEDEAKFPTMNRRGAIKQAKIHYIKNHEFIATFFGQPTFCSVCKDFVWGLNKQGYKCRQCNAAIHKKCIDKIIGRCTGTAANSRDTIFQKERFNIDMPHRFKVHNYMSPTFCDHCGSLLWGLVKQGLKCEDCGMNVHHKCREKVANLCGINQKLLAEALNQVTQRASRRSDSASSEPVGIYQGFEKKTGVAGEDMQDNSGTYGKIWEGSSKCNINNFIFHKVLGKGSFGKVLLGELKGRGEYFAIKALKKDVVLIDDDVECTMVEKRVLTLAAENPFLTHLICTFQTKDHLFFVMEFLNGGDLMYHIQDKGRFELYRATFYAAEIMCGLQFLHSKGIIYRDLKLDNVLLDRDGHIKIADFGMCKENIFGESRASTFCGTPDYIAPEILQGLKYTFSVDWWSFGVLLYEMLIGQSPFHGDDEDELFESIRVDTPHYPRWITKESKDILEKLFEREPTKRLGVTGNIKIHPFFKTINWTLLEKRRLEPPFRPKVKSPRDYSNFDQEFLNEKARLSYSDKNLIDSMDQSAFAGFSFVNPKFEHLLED
Chain of Protein kinase C beta type (Homo sapiens) (P05771 2-671 limits assumed): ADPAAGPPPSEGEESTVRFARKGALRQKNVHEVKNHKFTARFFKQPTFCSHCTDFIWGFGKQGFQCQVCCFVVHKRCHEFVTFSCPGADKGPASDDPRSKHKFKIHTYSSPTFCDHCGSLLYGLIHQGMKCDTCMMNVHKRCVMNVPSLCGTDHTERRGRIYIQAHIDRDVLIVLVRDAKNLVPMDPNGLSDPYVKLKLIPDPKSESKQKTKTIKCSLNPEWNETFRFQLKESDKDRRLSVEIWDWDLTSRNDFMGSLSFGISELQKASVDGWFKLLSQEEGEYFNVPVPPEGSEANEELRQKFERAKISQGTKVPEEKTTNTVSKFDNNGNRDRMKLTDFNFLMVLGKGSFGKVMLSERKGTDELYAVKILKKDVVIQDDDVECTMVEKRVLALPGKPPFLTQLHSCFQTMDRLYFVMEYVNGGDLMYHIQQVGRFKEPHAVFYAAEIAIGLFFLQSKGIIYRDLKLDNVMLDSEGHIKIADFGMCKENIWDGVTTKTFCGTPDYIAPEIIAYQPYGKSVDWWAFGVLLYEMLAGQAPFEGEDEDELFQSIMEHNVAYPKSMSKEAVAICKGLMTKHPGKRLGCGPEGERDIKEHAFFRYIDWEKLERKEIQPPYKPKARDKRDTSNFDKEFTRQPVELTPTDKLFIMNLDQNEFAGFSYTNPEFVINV

| inhibition [1] | inhibition [2] | inhibition [3] | inhibition [4] | inhibition [5] | inhibition [6] | inhibition [7] | pIC50 [8] | inhibition [9] | SMILES |
| --- | --- | --- | --- | --- | --- | --- | --- | --- | --- |
| inactive | inactive | inactive | inactive | inactive | inactive | inactive | 7.30 | inactive | COc1ncc2sc3c(c2n1)SCCNC3=O |
| inactive | < 40% | inactive | inactive | inactive | inactive | inactive |  | inactive | O=C1NCCCc2c1[nH]c1ccc(O)cc21 |
| inactive | inactive | inactive | inactive | inactive | inactive | inactive |  | inactive | O=C1NCCCc2c1oc1ccc(O)cc21 |
| inactive | inactive | inactive | inactive | inactive | inactive | inactive |  | inactive | O=C1NCCSc2c1sc1ccc(O)cc21 |
| inactive | < 40% | inactive | inactive | inactive | inactive | inactive |  | inactive | [N-]=[N+]=Nc1ccc2sc3c(c2c1)SCCNC3=O |
| inactive | inactive | inactive | inactive | inactive | inactive | inactive |  | inactive | O=C1NCCCSc2c1sc1ccc(O)cc21 |
| inactive | inactive | inactive | inactive | inactive | inactive | inactive |  | inactive | COc1ccc2sc3c(c2c1)SCCNC3=O |
| inactive | inactive | inactive | inactive | inactive | inactive | inactive |  | inactive | COc1ccc2sc3c(c2c1)SCCCNC3=O |
